The NIST ThermoML archive (doi:10.1021/acs.jced.5b00536)
“And” between values parts separate entries of the source, which are not always exact repeats. Equal entries are not always repeated.

Assay: xn = mol fraction of the nth substance listed
Conditions: x2 = 0.79; for electrical conductivity / mass density: 100 kPa, Liquid; for electrical conductivity: Alternating current cell with electrodes; for mass density: Buoyancy - hydrostatic balance; for surface tension liquid-gas: Maximal bubble pressure

[Ca+2].[F-].[F-] [calcium fluoride] + [F-].[Li+]
Conditions	electrical conductivity [S/m]	mass density	surface tension liquid-gas [mN/m]
1131.2 K	0.05865	–	–
1131.4 K	–	2066.7 kg/m3	–
1131.9 K	–	2066.7 kg/m3	–
1132.7 K	–	2065.5 kg/m3	–
1132.8 K	–	2066 kg/m3	–
1133 K	0.05876	–	–
1133.3 K	–	2064.9 kg/m3	–
1134.1 K	–	2064.2 kg/m3	–
1134.2 K	–	2064.2 kg/m3	–
1134.7 K	0.05888	–	–
1135 K	–	2063.5 kg/m3	–
1135.3 K	–	2062.4 kg/m3 and 2063 kg/m3	–
1135.7 K	–	2062.4 kg/m3	–
1136.2 K	–	2061.7 kg/m3	–
1136.4 K	0.05912	–	–
1136.5 K	–	2060.6 kg/m3	–
1136.8 K	–	2060.6 kg/m3	–
1136.9 K	–	2061.1 kg/m3	–
1137.2 K	–	2060 kg/m3	–
1137.5 K	–	2061.6 kg/m3	–
1137.8 K	–	2061 kg/m3	–
1138.1 K	0.05927	–	–
1138.2 K	–	2060.4 kg/m3	–
1138.7 K	–	2059.8 kg/m3	–
1139.3 K	–	2059.2 kg/m3	–
1139.9 K	0.05965	–	–
1140 K	–	2059.1 kg/m3	–
1140.4 K	–	2058.5 kg/m3	–
1140.8 K	–	2057.9 kg/m3	–
1141.1 K	–	2057.3 kg/m3	–
1141.4 K	–	2056.7 kg/m3	–
1141.5 K	0.05989	–	–
1142 K	–	2056.6 kg/m3	–
1142.7 K	–	2056 kg/m3	–
1143.2 K	0.06013	–	–
1143.4 K	–	2055.4 kg/m3	–
1143.5 K	–	2054.8 kg/m3	–
1144.2 K	–	2054.7 kg/m3	–
1144.4 K	–	2054.1 kg/m3	–
1144.7 K	–	2053.5 kg/m3	–
1144.9 K	0.06033	–	–
1145.2 K	–	2053.5 kg/m3	–
1145.5 K	–	2052.9 kg/m3	–
1146 K	–	2061.1 kg/m3	–
1146.5 K	0.06057	2061.1 kg/m3	–
1146.9 K	–	2060.5 kg/m3	–
1147.5 K	–	2059.8 kg/m3	–
1147.8 K	–	2059.2 kg/m3	–
1148 K	–	2059.2 kg/m3	–
1148.2 K	0.06057	–	–
1148.6 K	–	2058.6 kg/m3	–
1148.9 K	–	2058 kg/m3	–
1149 K	–	2058 kg/m3	–
1149.7 K	–	2057.4 kg/m3	–
1149.9 K	0.06079	–	–
1150.3 K	–	2056.7 kg/m3	–
1150.8 K	–	2056.7 kg/m3	–
1151 K	–	–	215.9
1151.4 K	0.06095	2056.1 kg/m3	–
1152 K	–	2055.4 kg/m3	–
1152.6 K	–	2055.4 kg/m3	–
1152.9 K	–	2054.8 kg/m3	–
1153 K	0.06111	–	–
1153.8 K	–	2054.1 kg/m3	–
1154.1 K	–	2053.5 kg/m3	–
1154.5 K	0.06131	–	–
1154.6 K	–	2053.5 kg/m3	–
1154.8 K	–	2052.3 kg/m3 and 2052.9 kg/m3	–
1155.5 K	–	2051.7 kg/m3	–
1155.6 K	–	2051.7 kg/m3	–
1155.9 K	–	2051.1 kg/m3	–
1156.2 K	0.0616	–	–
1156.5 K	–	2050.5 kg/m3	–
1156.6 K	–	2049.9 kg/m3 and 2051 kg/m3	–
1157.1 K	–	2050.4 kg/m3	–
1157.5 K	–	2050.4 kg/m3	–
1157.7 K	0.06168	2049.8 kg/m3	–
1158.8 K	–	2049.1 kg/m3	–
1159 K	–	2048.5 kg/m3	–
1159.1 K	–	2048.5 kg/m3	–
1159.2 K	0.06195	–	–
1159.9 K	–	2047.9 kg/m3	–
1160.2 K	–	2047.3 kg/m3	–
1160.7 K	0.06201	–	–
1161.3 K	–	2046.6 kg/m3	–
1161.9 K	–	2046 kg/m3	–
1162.1 K	0.062142	–	–
1162.8 K	–	2045.9 kg/m3	–
1163.2 K	–	2045.3 kg/m3	–
1163.6 K	0.062335	2044.7 kg/m3	–
1164.3 K	–	2044.6 kg/m3	–
1164.7 K	–	2048.4 kg/m3	–
1164.8 K	0.062395	–	–
1164.9 K	–	2048.4 kg/m3	–
1165.1 K	–	2048.4 kg/m3	–
1165.4 K	–	2047.8 kg/m3	–
1166.2 K	–	2047.1 kg/m3	–
1166.5 K	–	2046.5 kg/m3	–
1167.2 K	–	2046.4 kg/m3	–
1167.7 K	–	2045.8 kg/m3	–
1167.9 K	–	2045.3 kg/m3	–
1168.5 K	–	2045.2 kg/m3	–
1168.8 K	–	2044.6 kg/m3	–
1169 K	–	2044.6 kg/m3	–
1169.3 K	–	2044 kg/m3	–
1169.9 K	–	2043.4 kg/m3	–
1170 K	–	–	216
1170.1 K	–	2042.8 kg/m3	–
1170.6 K	–	2042.7 kg/m3	–
1171.2 K	–	2042.1 kg/m3	–
1171.5 K	–	2041.5 kg/m3	–
1171.9 K	–	2040.9 kg/m3	–
1172.2 K	–	2040.9 kg/m3	–
1172.9 K	–	2040.3 kg/m3	–
1173.2 K	–	2039.7 kg/m3	–
1173.3 K	–	2039.1 kg/m3	–
1173.6 K	–	2039.1 kg/m3	–
1173.8 K	–	2038.5 kg/m3	–
1174.9 K	–	2043.9 kg/m3	–
1175.4 K	–	2043.3 kg/m3	–
1176 K	–	2042.7 kg/m3	–
1176.3 K	–	2042.1 kg/m3	–
1177.1 K	–	2042 kg/m3	–
1177.5 K	–	2041.4 kg/m3	–
1178.4 K	–	2040.7 kg/m3	–
1179.4 K	–	2040 kg/m3	–
1179.7 K	–	2040 kg/m3	–
1180.3 K	–	2039.4 kg/m3	–
1180.5 K	–	2038.3 kg/m3 and 2038.8 kg/m3	–
1180.8 K	–	2037.7 kg/m3	–
1181 K	–	2037.1 kg/m3	–
1181.2 K	–	2037.1 kg/m3	–
1181.6 K	–	2036.5 kg/m3	–
1182.2 K	–	2035.9 kg/m3	–
1182.5 K	–	2035.8 kg/m3	–
1182.8 K	–	2035.2 kg/m3	–
1183.2 K	–	2034.6 kg/m3	–
1183.9 K	–	2034.6 kg/m3	–
1184.1 K	–	2034 kg/m3	–
1184.5 K	–	2033.9 kg/m3	–
1185.8 K	–	2036.5 kg/m3	–
1186.6 K	–	2035.9 kg/m3	–
1187 K	–	2035.3 kg/m3	–
1187.8 K	–	2035.2 kg/m3	–
1188 K	–	–	213.8
1188.4 K	–	2034.6 kg/m3	–
1189.1 K	–	2033.9 kg/m3	–
1189.4 K	–	2033.9 kg/m3	–
1189.9 K	–	2033.3 kg/m3	–
1190.2 K	–	2032.7 kg/m3	–
1190.8 K	–	2032.6 kg/m3	–
1191.6 K	–	2032 kg/m3	–
1192.4 K	–	2031.4 kg/m3	–
1192.9 K	–	2030.7 kg/m3	–
1193.2 K	–	2030.7 kg/m3	–
1193.7 K	–	2030.1 kg/m3	–
1194.1 K	–	2029.5 kg/m3	–
1194.4 K	–	2029.5 kg/m3	–
1194.5 K	–	2028.9 kg/m3	–
1194.7 K	–	2028.3 kg/m3	–
1195.3 K	–	2028.3 kg/m3	–
1195.7 K	–	2027.7 kg/m3	–
1196 K	–	2027.1 kg/m3	–
1196.4 K	–	2027 kg/m3	–
1197.1 K	–	2026.4 kg/m3	–
1197.6 K	–	2026.3 kg/m3	–
1198.3 K	–	2025.7 kg/m3	–
1198.8 K	–	2025.1 kg/m3	–
1199.3 K	–	2025 kg/m3	–
1199.6 K	–	2024.4 kg/m3	–
1200 K	–	2024.4 kg/m3	–
1200.6 K	–	2023.8 kg/m3	–
1200.8 K	–	2023.2 kg/m3	–
1201.2 K	–	2023.2 kg/m3	–
1201.6 K	–	2022.6 kg/m3	–
1202.1 K	–	2022 kg/m3	–
1202.3 K	–	2020.8 kg/m3	–
1202.5 K	–	2020.8 kg/m3	–
1203 K	–	2020.2 kg/m3	–
1203.4 K	–	2020.1 kg/m3	–
1203.7 K	–	2019.6 kg/m3	–
